Drawing on patent US20260035387A1 (BIOGEN MA INC., priority 2022, published 2026), this text covers mHTT protein levels and IC50 for 15 compounds.

Molecules are shown by their SMILES. pIC50: −log10 of the molar value. Where two headings read alike, the source gives them in different places.

For experiment [1], the system named is mHTT protein. The settings on record: HD patient cells; cited from earlier work.
Experiment [2] concerns mHTT protein. The settings on record: blood samples from SMA Type I patients dosed orally; cited from earlier work.
In experiment [3] the test system is mHTT protein. As to conditions: HD mouse model; cited from earlier work.
The test system of experiment [4] is mutant Huntington (HTT) protein. As to the kind of experiment: HTT Mutant HTRF iPSC assay (mHTT protein lowering). It is filed as cell-based. The settings on record: human iPSC derived from a HTT patient with a poly-Q49 mutation. (Time-resolved FRET reads energy transfer from a long-lived donor to a nearby acceptor.)

As for `CC1(C)CC(Oc2ccc(-c3ccc(-c4cn[nH]c4)cc3O)nn2)CC(C)(C)N1` [branaplam], the mHTT protein levels result in the experiment with mHTT protein [1], in the experiment with mHTT protein [2] and in the experiment on mHTT protein [3] was “lowers mHTT protein levels” throughout.

The term pIC50 denotes −log10 of the IC50, conventionally taken in molar units. Lower therefore signals a high IC50. In experiment [4], `Cc1cn2cc(NC(=O)c3cc4ccc(N5CC[C@H]6CN(C)CC[C@H]65)nc4s3)ccc2n1` (stereo in doubt) [Compound 28, N-(2-methylimidazo[1,2-a]pyridin-6-yl)-6-((3aS,7aR)-5-methyloctahydro-1H-pyrrolo[3,2-c]pyridin-1-yl)thieno[2,3-b]pyridine-2-carboxamide] gave a pIC50 of 5.05 to 6.00.

Take `Cc1cn2cc(NC(=O)c3cc4cnc(N5CC[C@@H](N(C)C)C5)nc4s3)nc(C)c2n1` [Compound 150, (R)-2-(3-(dimethylamino)pyrrolidin-1-yl)-N-(2,8-dimethylimidazo[1,2-a]pyrazin-6-yl)thieno[2,3-d]pyrimidine-6-carboxamide]: in experiment [4], the pIC50 is 6.00 to 7.00.

On to `COc1cc2nn(C)cc2cc1NC(=O)c1cc2ncc(N3CCC4(CN(C)C4)C3)nc2s1` [Compound 248, N-(6-methoxy-2-methyl-2H-indazol-5-yl)-3-(2-methyl-2,6-diazaspiro[3.4]octan-6-yl)thieno[2,3-b]pyrazine-6-carboxamide], for which the pIC50 in experiment [4] was 6.00 to 7.00.

As for `Cc1cn2cc(NC(=O)c3cc4ccc(N5CCNC6(CC6)C5)nc4s3)nc(C)c2n1` [Compound 193, N-(2,8-dimethylimidazo[1,2-a]pyrazin-6-yl)-6-(4,7-diazaspiro[2.5]octan-7-yl)thieno[2,3-b]pyridine-2-carboxamide], the pIC50 in experiment [4] was greater than 7.00.

`Cc1cn2cc(NC(=O)c3nc4ccc(N5CCC(N6CCC6)C5)nc4s3)nc(C)c2n1` (centres unmarked) [Compound 122, 5-(3-(azetidin-1-yl)pyrrolidin-1-yl)-N-(2,8-dimethylimidazo[1,2-a]pyrazin-6-yl)thiazolo[5,4-b]pyridine-2-carboxamide] showed a pIC50 in experiment [4] of 5.05 to 6.00.

Regarding `COc1nc(NC(=O)c2cc3ccc(C4CCN(C)CC4)nc3s2)cn2cc(C)nc12` [Compound 184, N-(8-methoxy-2-methylimidazo[1,2-a]pyrazin-6-yl)-6-(1-methylpiperidin-4-yl)thieno[2,3-b]pyridine-2-carboxamide], in experiment [4], the pIC50 was greater than 7.00.

Turning to `COc1nc(NC(=O)c2cc3nc(C4CCN(C)CC4)ccc3o2)cn2cc(C)nc12` [Compound 262, N-(8-methoxy-2-methylimidazo[1,2-a]pyrazin-6-yl)-5-(1-methylpiperidin-4-yl)furo[3,2-b]pyridine-2-carboxamide], in experiment [4], the pIC50 was 6.00 to 7.00.

Compound `Cc1cn2cc(NC(=O)c3cc4ccc(C5=CCCNC5)nc4s3)cc(F)c2n1` [Compound 84, N-(8-fluoro-2-methyl-imidazo[1,2-a]pyridin-6-yl)-6-(1,2,3,6-tetrahydropyridin-5-yl)thieno[2,3-b]pyridine-2-carboxamide] gave a pIC50 in experiment [4] greater than 7.00.

Compound `Cc1cn2cc(NC(=O)c3nc4ccc(N5C[C@@H]6CCN[C@@H]6C5)nc4s3)cc(F)c2n1` [Compound 110, N-(8-fluoro-2-methylimidazo[1,2-a]pyridin-6-yl)-5-((3aS,6aS)-hexahydropyrrolo[3,4-b]pyrrol-5(1H)-yl)thiazolo[5,4-b]pyridine-2-carboxamide] showed a negative logarithm of the IC50 (pIC50) in experiment [4] greater than 7.00.

Regarding `Cc1cn2cc(NC(=O)c3cc4ccc(N5CCC(C)(N(C)C)C5)nc4s3)nc(C)c2n1` (centres unmarked) [Compound 227, 6-(3-(dimethylamino)-3-methylpyrrolidin-1-yl)-N-(2,8-dimethylimidazo[1,2-a]pyrazin-6-yl)thieno[2,3-b]pyridine-2-carboxamide], in experiment [4], the pIC50 is greater than 7.00.

In experiment [4], `Cc1cn2cc(NC(=O)c3nc4ccc(N5C[C@H]6CCN[C@H]6C5)nc4s3)cc(F)c2n1` [Compound 108, N-(8-fluoro-2-methylimidazo[1,2-a]pyridin-6-yl)-5-((3aR,6aR)-hexahydropyrrolo[3,4-b]pyrrol-5(1H)-yl)thiazolo[5,4-b]pyridine-2-carboxamide] gave a pIC50 greater than 7.00.

`Cc1cn2cc(NC(=O)c3cc4ccc(N5CCC5CN(C)C)nc4s3)ccc2n1` (centres unmarked) [Compound 48, 6-(2-((dimethylamino)methyl)azetidin-1-yl)-N-(2-methylimidazo[1,2-a]pyridin-6-yl)thieno[2,3-b]pyridine-2-carboxamide]: in experiment [4], the pIC50 was 5.05 to 6.00.

Regarding `Cc1nc(NC(=O)c2cc3ccc(N4CCC5(CCCN5C)C4)nc3s2)cc2cn(C)nc12` (centres unmarked) [Compound 230, N-(2,7-dimethyl-2H-pyrazolo[3,4-c]pyridin-5-yl)-6-(1-methyl-1,7-diazaspiro[4.4]nonan-7-yl)thieno[2,3-b]pyridine-2-carboxamide], the pIC50 in experiment [4] was greater than 7.00.

`COc1cn2nc(C)cc2cc1NC(=O)c1cc2ccc(N3CCC(N(C)C)C3)nc2s1` (single isomer, unassigned) [Compound 206]: in experiment [4], the pIC50 was greater than 7.00.
